From patent publication US20160296499A1, “Spiroindoline Antiparasitic Derivatives” (ZOETIS SERVICES LLC, priority 2013, published 2016)
Where two headings read alike, the source gives them in different places.

Experiments:
[1] = test system: Dirofilaria immitis microfilariae; assay: Dirofilaria immitis, Microfilariae (DiMF) In Vitro Assay; conditions: Dirofilaria immitis
[2] = molecular target: T1, bovine vesicular acetylcholine transporter (VAChT) (Bos taurus, UniProt E1BK36); assay: Radioligand Binding Assay; conditions: Bovine binding Ki, CHO-K1 membranes with recombinant bovine VAChT, [3H]Compound X6 0.3 nM
T1 sequence (E1BK36 1-524): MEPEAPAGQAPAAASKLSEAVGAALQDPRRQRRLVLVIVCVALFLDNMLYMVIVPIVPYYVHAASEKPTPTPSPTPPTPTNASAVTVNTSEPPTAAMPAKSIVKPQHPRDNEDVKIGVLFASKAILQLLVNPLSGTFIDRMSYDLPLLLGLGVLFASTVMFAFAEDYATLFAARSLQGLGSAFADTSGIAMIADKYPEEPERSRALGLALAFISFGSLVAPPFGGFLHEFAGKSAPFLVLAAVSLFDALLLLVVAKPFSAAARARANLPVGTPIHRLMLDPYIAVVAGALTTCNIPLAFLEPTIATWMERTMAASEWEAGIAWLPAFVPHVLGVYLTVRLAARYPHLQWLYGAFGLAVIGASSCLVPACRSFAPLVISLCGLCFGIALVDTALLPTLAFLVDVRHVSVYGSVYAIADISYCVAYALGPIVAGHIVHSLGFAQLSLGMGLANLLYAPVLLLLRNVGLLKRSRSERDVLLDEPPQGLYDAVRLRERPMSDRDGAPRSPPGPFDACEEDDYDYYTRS

[3] = test system: Haemonchus contortus L3; assay: Haemonchus contortus, Larvae Stage 3 (HcL3) In Vitro Assay; conditions: Haemonchus contortus
[4] = 72 h, read-out: Di MF, MEC, decrease in microfilariae motility by visual assessment, curve starting at 100 μM
[5] = 96 h, read-out: HcL3 MEC, Minimal Effective Concentration whereby worm motility is inhibited by approximately 70%, 37° C., tested 0.001-100 μM
[6] = 96 hours, 37° C., read-out: HcL3 MEC

| Structure (SMILES) | minimal effective concentration [1, 4] | Ki [2] | minimal effective concentration [3, 5] | minimal effective concentration ([1]; 72 hours, read-out: Di MF) | minimal effective concentration [3, 6] |
| --- | --- | --- | --- | --- | --- |
| O=C(NCc1ccnc(F)c1)N1CC2(CCN(C/C=C/c3ccc(Cl)cc3)CC2)c2cc(C(F)(F)F)ccc21 [Example 82, (E)-1′-(3-(4-chlorophenyl)allyl)-N-((2-fluoropyridin-4-yl)methyl)-5-(trifluoromethyl)spiro[indoline-3,4′-piperidine]-1-carboxamide] | 4.4 µM | 0.572 µM | 7.6 µM | – | – |
| O=C(NCc1ccnc(F)c1)N1CC2(CCN(C/C=C/c3ccc(Cl)cc3)CC2)c2cc(-c3cc[nH]c(=O)c3)ccc21 [Example 83, (E)-1′-(3-(4-chlorophenyl)allyl)-N-((2-fluoropyridin-4-yl)methyl)-5-(2-oxo-1,2-dihydropyridin-4-yl)spiro[indoline-3,4′-piperidine]-1-carboxamide] | 6.9 µM | 11.2 µM | 100 µM | – | – |
| O=C(NCc1ccnc(F)c1)N1CC2(CCN(C/C=C/c3ccc(Cl)cc3)CC2)c2cc(C3CC3)ccc21 [Example 84, (E)-1′-(3-(4-chlorophenyl)allyl)-5-cyclopropyl-N-((2-fluoropyridin-4-yl)methyl)spiro[indoline-3,4′-piperidine]-1-carboxamide] | – | 0.68 µM | – | 3.3 µM | 100 µM |
| O=C(NCc1cnc(Cl)s1)N1CC2(CCN(C/C=C/c3ccc(Cl)cc3)CC2)c2cc(C(F)(F)F)ccc21 [Example 85, (E)-1′-(3-(4-chlorophenyl)allyl)-N-((2-chlorothiazol-5-yl)methyl)-5-(trifluoromethyl)spiro[indoline-3,4′-piperidine]-1-carboxamide] | – | 0.226 µM | – | 10 µM | 18.2 µM |
| N#Cc1cc2c(cn1)N(C(=O)NCc1ccnc(Cl)c1)CC21CCN(C/C=C/c2ccc(Cl)cc2)CC1 [Example 86, (E)-1-(3-(4-chlorophenyl)allyl)-N-((2-chloropyridin-4-yl)methyl)-5′-cyanospiro[piperidine-4,3′-pyrrolo[2,3-c]pyridine]-1′(2′H)-carboxamide] | 5.7 µM | 0.0317 µM | 3.3 µM | – | – |
| N#Cc1ccc2c(n1)C1(CCN(C/C=C/c3ccc(Cl)cc3)CC1)CN2C(=O)NCc1ccnc(Cl)c1 [Example 87, (E)-1-(3-(4-chlorophenyl)allyl)-N-((2-chloropyridin-4-yl)methyl)-5′-cyanospiro[piperidine-4,3′-pyrrolo[3,2-b]pyridine]-1′(2′H)-carboxamide] | 5.7 µM | 0.0381 µM | 18.2 µM | – | – |
| O=C(NCc1ccnc(Cl)c1)N1CC2(CCN(C/C=C/c3ccc(Cl)cc3)CC2)c2c(OC(F)(F)F)cccc21 [Example 88, (E)-1′-(3-(4-chlorophenyl)allyl)-N-((2-chloropyridin-4-yl)methyl)-4-(trifluoromethoxy)spiro[indoline-3,4′-piperidine]-1-carboxamide] | 3.3 µM | 1.13 µM | 100 µM | – | – |
| O=C(NCc1ccnc(Cl)c1)N1CC2(CCN(C/C=C/c3ccc(Cl)cc3)CC2)c2c(SC(F)(F)F)cccc21 [Example 89, (E)-1′-(3-(4-chlorophenyl)allyl)-N-((2-chloropyridin-4-yl)methyl)-4-(trifluoromethylthio)spiro[indoline-3,4′-piperidine]-1-carboxamide] | 6.9 µM | 0.774 µM | 100 µM | – | – |
| O=C(NCc1ccnc(F)c1)N1CC2(CCN(C/C=C/c3ccc(Cl)cc3)CC2)c2c(F)cc(C(F)(F)F)cc21 [Example 90, (E)-1′-(3-(4-chlorophenyl)allyl)-4-fluoro-N-((2-fluoropyridin-4-yl)methyl)-6-(trifluoromethyl)spiro[indoline-3,4′-piperidine]-1-carboxamide] | 10 µM | 0.256 µM | 1.8 µM | – | – |
| O=C(NCc1ccnc(F)c1)N1CC2(CCN(C/C=C/c3ccc(Cl)cc3)CC2)c2c(-c3ccccc3)cccc21 [Example 91, (E)-1′-(3-(4-chlorophenyl)allyl)-N-((2-fluoropyridin-4-yl)methyl)-4-phenylspiro[indoline-3,4′-piperidine]-1-carboxamide] | 3.3 µM | 0.295 µM | 100 µM | – | – |
| O=C(NCc1ccnc(F)c1)N1CC2(CCN(C/C=C/c3ccc(Cl)cc3)CC2)c2c1cccc2C(F)(F)F [Example 92, (E)-1′-(3-(4-chlorophenyl)allyl)-N-((2-fluoropyridin-4-yl)methyl)-4-(trifluoromethyl)spiro[indoline-3,4′-piperidine]-1-carboxamide] | 5 µM | 0.796 µM | 5 µM | – | – |
| O=C(NCc1ccnc(F)c1)N1CC2(CCN(C/C=C/c3ccc(Cl)cc3)CC2)c2c(C3CC3)cccc21 [Example 93, (E)-1′-(3-(4-chlorophenyl)allyl)-4-cyclopropyl-N-((2-fluoropyridin-4-yl)methyl)spiro[indoline-3,4′-piperidine]-1-carboxamide] | 5.7 µM | 0.958 µM | 100 µM | – | – |
| O=C(NCc1ccnc(F)c1)N1CC2(CCN(C/C=C/c3ccc(Cl)cc3)CC2)c2c(OC(F)(F)F)cccc21 [Example 94, (E)-1′-(3-(4-chlorophenyl)allyl)-N-((2-fluoropyridin-4-yl)methyl)-4-(trifluoromethoxy)spiro[indoline-3,4′-piperidine]-1-carboxamide] | 3.3 µM | 3.93 µM | 100 µM | – | – |
| O=C(NCc1cnc(Cl)s1)N1CC2(CCN(C/C=C/c3ccc(Cl)cc3)CC2)c2c(OC(F)(F)F)cccc21 [Example 95, (E)-1′-(3-(4-chlorophenyl)allyl)-N-((2-chlorothiazol-5-yl)methyl)-4-(trifluoromethoxy)spiro[indoline-3,4′-piperidine]-1-carboxamide] | 3.3 µM | 1.01 µM | 100 µM | – | – |
| N#Cc1ccc(/C=C/CN2CCC3(CC2)CN(C(=O)NCc2ccnc(Cl)c2)c2cc(-c4ccccc4C(F)(F)F)ccc23)cc1 [Example 96, (E)-N-((2-chloropyridin-4-yl)methyl)-1′-(3-(4-cyanophenyl)allyl)-6-(2-(trifluoromethyl)phenyl)spiro[indoline-3,4′-piperidine]-1-carboxamide] | 5.7 µM | 0.0254 µM | 100 µM | – | – |
| N#Cc1ccc(/C=C/CN2CCC3(CC2)CN(C(=O)NCc2ccnc(Cl)c2)c2ccc([N+](=O)[O-])cc23)cc1 [Example 97, (E)-N-((2-chloropyridin-4-yl)methyl)-1′-(3-(4-cyanophenyl)allyl)-5-nitrospiro[indoline-3,4′-piperidine]-1-carboxamide] | 5.7 µM | 0.0637 µM | 33 µM | – | – |
| N#Cc1ccc(/C=C/CN2CCC3(CC2)CN(C(=O)NCc2ccnc(Cl)c2)c2c(F)ccc(C(F)(F)F)c23)cc1 [Example 98, (E)-N-((2-chloropyridin-4-yl)methyl)-1′-(3-(4-cyanophenyl)allyl)-7-fluoro-4-(trifluoromethyl)spiro[indoline-3,4′-piperidine]-1-carboxamide] | 10 µM | 1.57 µM | 100 µM | – | – |
